From patent publication US6150393A (priority 1999, dated 2000)

Test system: not listed separately
Experiment: Bar catalepsy test in rats (extrapyramidal side effect analysis)
Assay type: in vivo, rat (male Sprague-Dawley)
Conditions: 0.8 mg/kg

SMILES | induction of catalepsy | time spent on the bar
O=C(CCCN1CCC(O)(c2ccc(Cl)cc2)CC1)c1ccc(F)cc1 [haloperidol, reference compound] | induces catalepsy in rats | significant increase in time spent on the bar

Target: T1, endogenous human 5-HT2C receptor (Homo sapiens, UniProt P28335)
T1 sequence (P28335 33-458): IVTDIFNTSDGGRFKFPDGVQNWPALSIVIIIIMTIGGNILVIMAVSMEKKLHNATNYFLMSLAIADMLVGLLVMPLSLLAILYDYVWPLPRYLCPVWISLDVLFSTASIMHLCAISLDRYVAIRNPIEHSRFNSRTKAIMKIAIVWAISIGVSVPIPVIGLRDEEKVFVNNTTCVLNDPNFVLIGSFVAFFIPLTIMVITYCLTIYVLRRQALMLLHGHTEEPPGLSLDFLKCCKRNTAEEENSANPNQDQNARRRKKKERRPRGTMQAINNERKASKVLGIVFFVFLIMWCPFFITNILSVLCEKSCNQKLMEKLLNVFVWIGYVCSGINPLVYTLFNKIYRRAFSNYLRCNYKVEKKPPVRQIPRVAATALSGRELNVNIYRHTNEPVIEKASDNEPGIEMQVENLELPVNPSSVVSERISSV
Experiment: not given
Conditions: 30 μM mianserin, data not shown

SMILES | inhibition of serotonin-stimulated [35S]GTPγS binding
CN1CCN2c3ccccc3Cc3ccccc3C2C1 (stereo not shown) [mianserin] | completely inhibited

Same assay, conditions: data not shown

SMILES | effect on serotonin response of [35S]GTPγS binding
CN1CCN2c3ccccc3Cc3ccccc3C2C1 (stereo not shown) [mianserin] | inhibits this response

Same assay, conditions: no agonist, data not shown

SMILES | effect on basal constitutive binding of [35S]GTPγS
CN1CCN2c3ccccc3Cc3ccccc3C2C1 (stereo not shown) [mianserin] | partial inverse agonist

Test system: human mutated 5HT2A receptor, AP-3
Experiment: Receptor-mediated inositol phosphate (IP3) accumulation, AP-3
Assay type: cell-based
Conditions: 10 μM test compound, triplicate; control without test compound
Protocol: On day one, 1×10^7 293 cells per 150 mm plate were plated out. On day two, two reaction tubes were prepared (the proportions to follow for each tube are per plate): tube A was prepared by mixing 20 μg DNA (e.g., pCMV vector; pCMV vector AP-1 cDNA, etc.) in 1.2 ml serum free DMEM (Irvine Scientific, Irvine, Calif.); tube B was prepared by mixing 120 μl lipofectamine (Gibco BRL) in 1.2 ml serum free DMEM. Tubes A and B were then admixed by inversions (several times), followed by incubation at room temperature for 30-45 min. The admixture is referred to as the "transfection mixture". Plated 293 cells were washed with 1×PBS, followed by addition of 10 ml serum free DMEM. 2.4 ml of the transfection mixture was then added to the cells, followed by incubation for 4 hrs at 37° C./5% CO2. On day 3, cells were trypsinized and counted, followed by plating of 1×10^6 cells/well (poly D-lysine treated 12-well plates). Cells were permitted to adhere to the wells, followed by one wash with 1×PBS. Thereafter, 0.5 μCi ^3 H-inositol in 1 ml inositol-free DMEM was added per well. Protocol B.
On day 4, the cells were washed with 0.5 ml PBS and then 0.45 ml of assay medium was added containing inositol-free/serum free media, 10 μM pargyline, 10 mM lithium chloride, or 0.4 ml of assay medium and 50 ul of 10× ketanserin (ket) to a final concentration of 10 μM. The cells were then incubated for 30 minutes at 37° C. Then the cells were washed with 0.5 ml PBS and 200 ul of fresh/ice cold stop solution (1M KOH; 18 mM Na-borate; 3.8 mM EDTA) was added/well. The solution was kept on ice for 5-10 minutes or until the cells were lysed and then neutralized by 200 μl of fresh/ice cold neutralization sol. (7.5% HCL). The lysate was then transferred into 1.5 ml microcentrifuge tubes and 1 ml of chloroform/methanol (1:2) was added/tube. The solution was vortexed for 15 seconds and the upper phase was applied to a Biorad AG1-X8 anion exchange resin (100-200 mesh). The resin was washed with water and 0.9 ml of the upper phase was loaded onto the column. The column was washed with 10 mls of 5 mM myo-inositol and 10 ml of 5 mM Na-borate/60 mM Na-formate. The inositol trisphosphates were eluted into scintillation vials containing 10 ml of scintillation cocktail with 2 ml of 0.1 M formic acid/1 M ammonium formate. The columns were regenerated by washing with 10 ml of 0.1 M formic acid/3M ammonium formate and rinsed twice with dd H2 O and stored at room temperature in water.
Candidate compound identified in the assays of Examples 9a-9c were then evaluated for inositol phosphate accumulation, following the protocol of Example 5 ([…] expressing human mutated 5HT2A receptor, AP-3), modified as follows: tube A was prepared by mixing 16 μg DNA (e.g., pCMV vector; pCMV vector AP-1 cDNA, etc.) in 1.0 ml serum free DMEM (Irvine Scientific, Irvine, Calif.); tube B was prepared by mixing 60 μl lipofectamine (Gibco BRL) in 1.0 ml serum free DMEM. Tubes A and B were then admixed by inversions (several times), followed by incubation at room temperature for 30 min. The admixture is referred to as the "transfection mixture". Plated 293 cells were washed with 10 ml Serum Free DMEM, followed by addition of 11 ml Serum Free DMEM. 2.0 ml of the transfection mixture was then added to the cells, followed by incubation for 5 hrs at 37° C./5% CO2. On day 3, cells were trypsinized and counted, followed by plating of 1×10^6 cells/well (12-well plates). Cells were permitted to adhere to the wells for 8 hrs, followed by one wash with 1×PBS. Thereafter, 0.5 μCi ^3 H-inositol in 1 ml inositol-free DMEM was added per well.
On day 4, the cells were washed with 1.5 ml PBS and then 0.9 ml of assay medium was added containing inositol-free/serum free media, 10 μM pargyline, 10 mM lithium chloride, for 5 min in 37° C./5% CO2 followed by 100 μl addition of candidate compound diluted in the same material. The cells were then incubated for 120 minutes at 37° C. […]

SMILES | IP3 % of Control [%]
CSc1ccc(NC(=O)Nc2cccc(-c3nn(C)cc3Br)c2)cc1 [Compound 116079, N-[3-(4-bromo-1-methylpyrazol-3-yl)phenyl][(4-methylthiophenyl)amino]carboxamide] | 16
Cn1cc(Br)c(-c2cccc(NC(=O)Nc3ccccc3OC(F)(F)F)c2)n1 [Compound 116087, {[3-(4-bromo-1-methylpyrazol-3-yl)phenyl]amino}-N-[2-(trifluoromethoxy)phenyl]carboxamide] | 11
Cn1cc(Br)c(-c2cccc(NC(=O)Nc3ccccc3[N+](=O)[O-])c2)n1 [Compound 116089, {[3-(4-bromo-1-methylpyrazol-3-yl)phenyl]amino}-N-(2-nitrophenyl)carboxamide] | 27
COc1ccc(NC(=O)Nc2cccc(-c3nn(C)cc3Br)c2)cc1 [Compound 116091, {[3-(4-bromo-1-methylpyrazol-3-yl)phenyl]amino}-N-(4-methoxyphenyl)carboxamide] | 12
Cc1ccccc1NC(=O)Nc1cccc(-c2nn(C)cc2Br)c1 [Compound 116092, {[3-(4-bromo-1-methylpyrazol-3-yl)phenyl]amino}-N-(2-methylphenyl)carboxamide] | 32
Cn1cc(Br)c(-c2cccc(NC(=O)Nc3ccc(C(F)(F)F)cc3)c2)n1 [Compound 116097, {[3-(4-bromo-1-methylpyrazol-3-yl)phenyl]amino}-N-[4-(trifluoromethyl)phenyl]carboxamide] | 11
Cn1cc(Br)c(-c2cccc(NC(=O)Nc3cccc(Cl)c3)c2)n1 [Compound 116105, {[3-(4-bromo-1-methylpyrazol-3-yl)phenyl]amino}-N-(3-chlorophenyl)carboxamide] | 11
Cn1cc(Br)c(-c2cccc(NC(=O)Nc3ccccc3Cl)c2)n1 [Compound 116108, {[3-(4-bromo-1-methylpyrazol-3-yl)phenyl]amino}-N-(2-chlorophenyl)carboxamide] | 6
CC(C)c1ccc(NC(=O)Nc2cccc(-c3nn(C)cc3Br)c2)cc1 [Compound 116110, {[3-(4-bromo-1-methylpyrazol-3-yl)phenyl]amino}-N-[4-(methylethyl)phenyl]carboxamide] | 7
COc1cccc(NC(=O)Nc2cccc(-c3nn(C)cc3Br)c2)c1 [Compound 116111, {[3-(4-bromo-1-methylpyrazol-3-yl)phenyl]amino}-N-(3-methoxyphenyl)carboxamide] | 7
Cc1cccc(NC(=O)Nc2cccc(-c3nn(C)cc3Br)c2)c1 [Compound 116112, {[3-(4-bromo-1-methylpyrazol-3-yl)phenyl]amino}-N-(3-methylphenyl)carboxamide] | 14
Cn1cc(Br)c(-c2cccc(NC(=O)Nc3ccc(C(C)(C)C)cc3)c2)n1 [Compound 116119, N-[4-(tert-butyl)phenyl]{[3-(4-bromo-1-methylpyrazol-3-yl)phenyl]amino}carboxamide] | 17
CN(C)c1ccc(NC(=O)Nc2cccc(-c3nn(C)cc3Br)c2)cc1 [Compound 116122, N-[4-(dimethylamino)phenyl]{[3-(4-bromo-1-methylpyrazol-3-yl)phenyl]amino}carboxamide] | 9
Cc1c(Cl)cc(NC(=O)Nc2cccc(-c3nn(C)cc3Br)c2)cc1Cl [Compound 116138, N-(3,5-dichloro-4-methylphenyl){[3-(4-bromo-1-methylpyrazol-3-yl)phenyl]amino}carboxamide] | 23
Cn1cc(Br)c(-c2cccc(NC(=O)Nc3ccc(SC(F)(F)F)cc3)c2)n1 [Compound 116139, {[3-(4-bromo-1-methylpyrazol-3-yl)phenyl]amino}-N-[4-(trifluoromethylthio)phenyl]carboxamide] | 12
Cn1cc(Br)c(-c2cccc(NC(=O)Nc3ccccc3F)c2)n1 [Compound 116144, {[3-(4-bromo-1-methylpyrazol-3-yl)phenyl]amino}-N-(2-fluorophenyl)carboxamide] | 12
Cn1cc(Br)c(-c2cccc(NC(=O)Nc3ccccc3C(N)=O)c2)n1 [Compound 116145, 2-({[3-(4-bromo-1-methylpyrazol-3-yl)phenyl]amino}carbonylamino)benzamide] | 31
Cn1cc(Br)c(-c2cccc(NC(=O)Nc3ccc(C#N)cc3)c2)n1 [Compound 116147, {[3-(4-bromo-1-methylpyrazol-3-yl)phenyl]amino}-N-(4-cyanophenyl)carboxamide] | 12
Cn1cc(Br)c(-c2cccc(NC(=O)Nc3ccccc3C#N)c2)n1 [Compound 116148, {[3-(4-bromo-1-methylpyrazol-3-yl)phenyl]amino}-N-(2-cyanophenyl)carboxamide] | 30

Same assay, conditions: AP-3; Example 10

SMILES | IC50 [nM]
Cn1cc(Br)c(-c2cccc(NC(=O)Nc3ccc(OC(F)(F)F)cc3)c2)n1 [Compound 103487, N-[3-(4-bromo-1-methylpyrazol-3-yl)phenyl][{(4-trifluoromethoxy)phenyl}amino]carboxamide] | 90
